Like-named read-outs stand apart in the source and are kept apart here.
Tests used:
[1] = test system: NCI-H69 xenografts (small cell lung cancer); experiment: Antitumor activity in vivo, subcutaneous NCI-H69 xenograft model; set-up: species or system BALB/c Nude mice
Experimental: The antitumor activity of CDK7_1187 in vivo was evaluated on a subcutaneous xenograft model of the NCl-H69 line (small cell lung cancer, ATCC® HTB-119™) transplanted to BALB/c Nude mice.
NCl-H69 cell line was cultured in RPMI-1640 medium (PanEco, Russia) with enrichment of the basal growth medium with L-glutamine at a concentration of 2 mM (PanEco, Russia) and 10% fetal bovine serum (Gibco, Thermo Fisher Scientific, USA).
The study used 20 BALB/c Nude mice (females) obtained from the Federal State Budgetary Scientific Institution “Federal Research Center Institute of Cytology and Genetics, Siberian Branch of Russian Academy of Sciences” (ICG SB RAS). BALB/c Nude mice were subcutaneously administered into the right lateral side of the body with […] of suspension containing 5×10^6 NCI-H69 tumor cells and Matrigel (Corning® Matrigel® Basement Membrane Matrix) at 1:1 ratio.
Linear dimensions of the tumor were determined using an electronic caliper. Volume of the tumor node was determined by the formula (1):
[formula] • where L and W are large and small diameters of the tumor node, respectively.
The efficacy of test product was measured by the index of tumor growth inhibition (TGI, %) calculated according to the formula (2):
[formula] • where Vc and Vp are mean volumes of the tumor node in the control group and the group of animals that received the test substance, respectively.
After achieving an average tumor volume of 130 mm^3, animals were divided into 2 groups of 10 animals, volume of the tumor node was used as a randomization criterion. The day of the first administration of the product was designated as day 0.
Test substance CDK7_1187 was administered intragastrically at a dose of 6 mg/kg daily, for 21 days. Before each administration, CDK7_1187 was diluted in 5% solution of glucose (Solopharm, Russia) and 0.1% solution of DMSO (Sigma, USA). The control group received a 5% solution of glucose and a 0.1% solution of DMSO in an analogous volume.
Statistical analysis was carried out using the GraphPad Prism 9 software package. Mann-Whitney U test was employed to assess the significance of differences when comparing the volumes of tumor nodes. Differences were identified as significant if p<0.05.

[2] = Pharmacokinetics in mice plasma following intravenous administration; assay type: in vivo, CD-1 mice; settings: male, CD-1, mouse; for half-life: read-out: T½ (converted); for Vd: read-out: Vss
Experimental: Pharmacokinetic studies of the compounds were carried out on CD-1 mice, males, aged about 8 weeks, weighing 16-29 g. The animals were given a single oral (PO) administration (intragastrically) at a dose of 10 mg/kg in a formulation in the form of a 0.2% solution of hydroxypropyl methylcellulose (HPMC) in a 5% aqueous solution of glucose and a single IV-bolus administration (intravenously) at a dose of 1.0 mg/kg for 1277 and at a dose of 2.0 mg/kg for substances CDK7_1187, CDK7_1225, CDK7_1229 and CDK7_1276 in a formulation comprising 0.2% DMSO in 5% aqueous solution of glucose.
For each substance, 21-30 animals were used for each dose of PO and IV administration. All mice were weighed and randomized before dosing.
3-5 animals were used for each time point. Each animal was sampled at one time point. At least 12 h before the start of the experiment, the animals were deprived of food while maintaining free access to water.
Animals from the PO and IV groups were subjected to blood sampling before administering the substance and after 0.5, 2, 4, 8, 12 and 24 h.
Blood was collected by cardiac puncture using the closed method. Blood was collected in a volume of 0.2 ml into polypropylene tubes comprising 20 μl of 5% EDTA. Blood plasma was separated by centrifugation at 10000 rpm for 10 minutes at 4±2° C. and transferred into clean labeled tubes.
Test blood plasma samples of mice from the experimental groups were obtained in a volume of 50 μl. Afterwards, […] of a solution of internal standard (tolbutamide (Sigma, T0891)) prepared in acetonitrile, at a concentration of 50 ng/ml, pre-cooled in the refrigerator at 2-8° C., was added to the samples, stirred in a vortex mixer (G560E, Scientific Industries) for 10 seconds and incubated at 4° C. for 15 minutes for protein precipitation. Samples were then centrifuged (5417R centrifuge, Eppendorf) at 1500 g for 10 minutes while cooling to 4° C. 150 μl of the supernatant were transferred to a 96-well plate for HPLC-MS/MS analysis. Quantitative determination of test compounds in blood plasma was carried out by absolute calibration method. The calibration curve was generated by analyzing plasma samples with supplementations of known amounts of the standard of the compound being determined. The lower limit of the quantitative determination of test compounds in blood plasma was 1 ng/ml, the analytical range of the technique was 1 ng/ml to 2000 ng/ml. The technique was partially validated in terms of selectivity, accuracy, precision, linearity, matrix effects, stability.
The Qtrap 5500 mass spectrometer (AB Sciex) in combination with the Agilent 1290 Infinity II HPLC liquid chromatograph (Agilent) and a cooling multisampler (Agilent 1290 Infinity II Multisampler G7167B) was used as an HPLC-MS/MS system. Chromatographic analysis was performed on a C18 reversed-phase HPLC column (YMC-Triart C18, 50*2 mm, 1.9 μm, YMC CO. Ltd). The mobile phase used was used a mixture of deionized water and acetonitrile supplemented with 0.1% formic acid in gradient mode, flow rate: 0.5 ml/min, column T=40° C., autosampler T=8° C., analysis time: 2.8 min. Mass spectrometric detection was performed in multiple reaction monitoring (MRM) mode. Precursor ions, fragment ions and collision energies for each substance were selected experimentally. Two Q1/Q3 transitions were used to record MRM chromatograms of the analyte and internal standard; one of transitions was used for quantitative calculations, the other one was used to confirm that the […] corresponds to a given substance. Based on the results of HPLC-MS/MS analysis of calibration samples using the Analyst 1.6.3 software, the calibration dependence of areas of chromatographic analyte peaks normalized to the signal of the internal standard on the concentration of the analyte was built.
Pharmacokinetic analysis was performed by non-compartmental method using the Phoenix WinNonlin 6.3 software package. […]

Structure (SMILES) | AUC(0-t) ([2]; dose 2 mg/kg) [ng·h/mL] | clearance ([2]; dose 2 mg/kg) [mL/min/kg] | half-life ([2]; dose 2 mg/kg) [h] | Vd ([2]; dose 2 mg/kg) [L/kg] | tumor volume versus control group ([1]; 6 mg/kg daily, days 17 and 21, Mann-Whitney p<0.05) | index of tumor growth inhibition (TGI) ([1]; BALB/c Nude mice, 6 mg/kg intragastrically daily for 21 days, end of the observation period) [%] | TGI index ([1]; Day 9, intragastrically 6 mg/kg daily) [%] | TGI index ([1]; Day 13, intragastrically 6 mg/kg daily) [%] | TGI index ([1]; Day 17, intragastrically 6 mg/kg daily) [%] | TGI index ([1]; Day 21, intragastrically 6 mg/kg daily) [%] | AUC(0-t) ([2]; dose 1 mg/kg) [ng·h/mL] | clearance ([2]; dose 1 mg/kg) [mL/min/kg] | half-life ([2]; dose 1 mg/kg) [h] | Vd ([2]; dose 1 mg/kg) [L/kg]
CC1(C)CC[C@H](Nc2ncc(C(F)(F)F)c(-c3c[nH]c4c3CCCN(C3CC3)C4=O)n2)CN1 [CDK7_1225, 7-cyclopropyl-3-(2-{[(3S)-6,6-dimethylpiperidin-3-yl]amino}-5-(trifluoromethyl)py-rimidin-4-yl)-1H,4H,5H,6H,7H, 8H-pyrrolo[2,3-c]azepin-8-one] | 691 | 48 | 1.8 | 6.3 | – | – | – | – | – | – | – | – | – | –
O=C1c2[nH]cc(-c3nc(N[C@H]4CCC5(CC5)NC4)ncc3C(F)(F)F)c2CCCN1C1CC1 [CDK7_1276, 3-(2-{[(6S)-4-azaspiro[2.5]octan-6-yl]amino}-5-(trifluoromethyl)py-rimidin-4-yl)-7-cyclopropyl-1H,4H,5H,6H,7H, 8H-pyrrolo[2,3-c]azepin-8-one] | 1380 | 21.5 | 4.15 | 6.52 | – | – | – | – | – | – | – | – | – | –
CC(C)N1CCCc2c(-c3nc(N[C@H]4CCC5(CC5)NC4)ncc3C(F)(F)F)c[nH]c2C1=O [CDK7_1277, 3-(2-{[(6S)-4-azaspiro[2.5]octan-6-yl]amino}-5-(trifluoromethyl)py-rimidin-4-yl)-7-(propan-2-yl)-1H,4H,5H,6H,7H, 8H-pyrrolo[2,3-c]azepin-8-one] | – | – | – | – | – | – | – | – | – | – | 363 | 45 | 2.1 | 6.89

The next lines start with results.

AUC(0-t) ([2]; dose 2 mg/kg) [ng·h/mL] | clearance ([2]; dose 2 mg/kg) [mL/min/kg] | half-life ([2]; dose 2 mg/kg) [h] | Vd ([2]; dose 2 mg/kg) [L/kg] | Structure (SMILES) | tumor volume versus control group ([1]; 6 mg/kg daily, days 17 and 21, Mann-Whitney p<0.05) | index of tumor growth inhibition (TGI) ([1]; BALB/c Nude mice, 6 mg/kg intragastrically daily for 21 days, end of the observation period) [%] | TGI index ([1]; Day 9, intragastrically 6 mg/kg daily) [%] | TGI index ([1]; Day 13, intragastrically 6 mg/kg daily) [%] | TGI index ([1]; Day 17, intragastrically 6 mg/kg daily) [%] | TGI index ([1]; Day 21, intragastrically 6 mg/kg daily) [%] | AUC(0-t) ([2]; dose 1 mg/kg) [ng·h/mL] | clearance ([2]; dose 1 mg/kg) [mL/min/kg] | half-life ([2]; dose 1 mg/kg) [h] | Vd ([2]; dose 1 mg/kg) [L/kg]
314 | 103 | 1.7 | 10.1 | CN1CCCc2c(-c3nc(N[C@H]4CCC(C)(C)NC4)ncc3C(F)(F)F)c[nH]c2C1=O [CDK7_1187, 3-(2-{[(3S)-6,6-dimethylpiperidin-3-yl]amino}-5-(trifluoromethyl)py-rimidin-4-yl)-7-methyl-1H,4H,5H,6H,7H, 8H-pyrrolo[2,3-c]azepin-8-one] | statistically significantly less | 48 | 10 | 36 | 40 | 48 | – | – | – | –
1140 | 29 | 2 | 4.17 | CC(C)N1CCCc2c(-c3nc(N[C@H]4CCC(C)(C)NC4)ncc3C(F)(F)F)c[nH]c2C1=O [CDK7_1229, 3-(2-{[(3S)-6,6-dimethylpiperidin-3-yl]amino}-5-(trifluoromethyl)py-rimidin-4-yl)-7-(propan-2-yl)-1H,4H,5H,6H,7H, 8H-pyrrolo[2,3-c]azepin-8-one] | – | – | – | – | – | – | – | – | – | –
